Tested on: 695427-040-R-J1-PDC complex spheroid viability
Assay: Anticancer human tumor 695427-040-R-J1-PDC patient-derived colon adenocarcinoma cell line growth inhibition [POLQ]
Settings: for IC50: curve of first compound; for viability, T/C: stronger effect = lower value
Outline: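 PDC + HUVEC + MSC complex spheroids; POLQ inhibitors ± partner drugs; top conc. at/near clinical Cmax, else 10 microM (SN-38 1 microM), half-log dilutions; 37 degrees C, 5% CO2.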

[1] = second compound 0.0316 µM, first compound 0.0316 µM
[2] = second compound 0.0316 µM, first compound 0.1 µM
[3] = second compound 0.0316 µM, first compound 0.316 µM
[4] = second compound 0.0316 µM, first compound 1 µM
[5] = second compound 0.0316 µM, first compound 3.16 µM
[6] = second compound 0.0316 µM, first compound 10 µM
[7] = second compound 0.1 µM, first compound 0.0316 µM
[8] = second compound 0.1 µM, first compound 0.1 µM
[9] = second compound 0.1 µM, first compound 0.316 µM
[10] = second compound 0.1 µM, first compound 1 µM
[11] = second compound 0.1 µM, first compound 3.16 µM
[12] = second compound 0.1 µM, first compound 10 µM
[13] = second compound 0.316 µM, first compound 0.0316 µM
[14] = second compound 0.316 µM, first compound 0.1 µM
[15] = second compound 0.316 µM, first compound 0.316 µM
[16] = second compound 0.316 µM, first compound 1 µM
[17] = second compound 0.316 µM, first compound 3.16 µM
[18] = second compound 0.316 µM, first compound 10 µM
[19] = second compound 1 µM, first compound 0.0316 µM
[20] = second compound 1 µM, first compound 0.1 µM
[21] = second compound 1 µM, first compound 0.316 µM
[22] = second compound 1 µM, first compound 1 µM
[23] = second compound 1 µM, first compound 3.16 µM
[24] = second compound 1 µM, first compound 10 µM
[25] = second compound 3.16 µM, first compound 0.0316 µM
[26] = second compound 3.16 µM, first compound 0.1 µM
[27] = second compound 3.16 µM, first compound 0.316 µM
[28] = second compound 3.16 µM, first compound 1 µM
[29] = second compound 3.16 µM, first compound 3.16 µM
[30] = second compound 3.16 µM, first compound 10 µM
[31] = second compound 10 µM, first compound 0.0316 µM
[32] = second compound 10 µM, first compound 0.1 µM
[33] = second compound 10 µM, first compound 0.316 µM
[34] = second compound 10 µM, first compound 1 µM
[35] = second compound 10 µM, first compound 3.16 µM
[36] = second compound 10 µM, first compound 10 µM
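Further: spheroids exposed to compounds for seven days.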
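Wherever viability, T/C is given: 100% = DMSO vehicle control viability.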

CC1COCCN1c1cc(C2(S(C)(=N)=O)CC2)nc(-c2ccnc3[nH]ccc23)n1 (stereo not drawn) + COC1C(OC(N)=O)C(O)C(Oc2ccc3c(O)c(NC(=O)c4ccc(O)c(CC=C(C)C)c4)c(=O)oc3c2C)OC1(C)C
IC50 (second compound 0.0316 µM): > 10 µM | IC50 (second compound 0.1 µM): > 10 µM | IC50 (second compound 0.316 µM): > 10 µM | IC50 (second compound 1 µM): > 10 µM | IC50 (second compound 3.16 µM): > 10 µM | IC50 (second compound 10 µM): > 10 µM | viability, T/C [1]: 96.3% | viability, T/C [2]: 101% | viability, T/C [3]: 101% | viability, T/C [4]: 101% | viability, T/C [5]: 93.9% | viability, T/C [6]: 86% | viability, T/C [7]: 124% | viability, T/C [8]: 89.4% | viability, T/C [9]: 104% | viability, T/C [10]: 96.8% | viability, T/C [11]: 97.6% | viability, T/C [12]: 80.8% | viability, T/C [13]: 104% | viability, T/C [14]: 89.7% | viability, T/C [15]: 101% | viability, T/C [16]: 101% | viability, T/C [17]: 101% | viability, T/C [18]: 81.7% | viability, T/C [19]: 104% | viability, T/C [20]: 105% | viability, T/C [21]: 102% | viability, T/C [22]: 99.3% | viability, T/C [23]: 107% | viability, T/C [24]: 86.5% | viability, T/C [25]: 94.1% | viability, T/C [26]: 90.7% | viability, T/C [27]: 99.7% | viability, T/C [28]: 97.1% | viability, T/C [29]: 107% | viability, T/C [30]: 85.9% | viability, T/C [31]: 104% | viability, T/C [32]: 102% | viability, T/C [33]: 102% | viability, T/C [34]: 97.7% | viability, T/C [35]: 102% | viability, T/C [36]: 79%

CNCc1ccc(-c2[nH]c3cc(F)cc4c3c2CCNC4=O)cc1 + Cc1cccc(N(C)C(=O)C2C(O)CCN2c2nc(C)cc(C(F)(F)F)c2C#N)c1
IC50 (second compound 0.0316 µM): > 10 µM | IC50 (second compound 0.1 µM): > 10 µM | IC50 (second compound 0.316 µM): > 10 µM | IC50 (second compound 1 µM): > 10 µM | IC50 (second compound 3.16 µM): > 10 µM | IC50 (second compound 10 µM): > 10 µM | viability, T/C [1]: 102% | viability, T/C [2]: 104% | viability, T/C [3]: 105% | viability, T/C [4]: 96.8% | viability, T/C [5]: 108% | viability, T/C [6]: 109% | viability, T/C [7]: 111% | viability, T/C [8]: 100% | viability, T/C [9]: 95.9% | viability, T/C [10]: 95.3% | viability, T/C [11]: 105% | viability, T/C [12]: 108% | viability, T/C [13]: 104% | viability, T/C [14]: 99.3% | viability, T/C [15]: 104% | viability, T/C [16]: 103% | viability, T/C [17]: 102% | viability, T/C [18]: 99.6% | viability, T/C [19]: 92.7% | viability, T/C [20]: 93.9% | viability, T/C [21]: 93.6% | viability, T/C [22]: 98% | viability, T/C [23]: 110% | viability, T/C [24]: 102% | viability, T/C [25]: 99% | viability, T/C [26]: 98.1% | viability, T/C [27]: 98.4% | viability, T/C [28]: 103% | viability, T/C [29]: 108% | viability, T/C [30]: 104% | viability, T/C [31]: 92.3% | viability, T/C [32]: 92.1% | viability, T/C [33]: 88.9% | viability, T/C [34]: 93.2% | viability, T/C [35]: 104% | viability, T/C [36]: 104%

CC1COCCN1c1cc(-c2ccnn2C)c2ccnc(-c3ccn[nH]3)c2n1 (stereo not drawn) + COC1C(OC(N)=O)C(O)C(Oc2ccc3c(O)c(NC(=O)c4ccc(O)c(CC=C(C)C)c4)c(=O)oc3c2C)OC1(C)C
IC50 (second compound 0.0316 µM): 1.21 µM | IC50 (second compound 0.1 µM): 1.13 µM | IC50 (second compound 0.316 µM): 1.56 µM | IC50 (second compound 1 µM): 0.748 µM | IC50 (second compound 3.16 µM): 1.21 µM | IC50 (second compound 10 µM): 1.47 µM | viability, T/C [1]: 97.2% | viability, T/C [2]: 83.3% | viability, T/C [3]: 63.5% | viability, T/C [4]: 50.3% | viability, T/C [5]: 47% | viability, T/C [6]: 44.8% | viability, T/C [7]: 97.5% | viability, T/C [8]: 81.1% | viability, T/C [9]: 64.2% | viability, T/C [10]: 49.9% | viability, T/C [11]: 44.3% | viability, T/C [12]: 44.7% | viability, T/C [13]: 104% | viability, T/C [14]: 79.7% | viability, T/C [15]: 61.4% | viability, T/C [16]: 51.2% | viability, T/C [17]: 48.5% | viability, T/C [18]: 44.6% | viability, T/C [19]: 93.5% | viability, T/C [20]: 85.9% | viability, T/C [21]: 58.2% | viability, T/C [22]: 49.4% | viability, T/C [23]: 46.6% | viability, T/C [24]: 41.8% | viability, T/C [25]: 95.8% | viability, T/C [26]: 86.8% | viability, T/C [27]: 63.3% | viability, T/C [28]: 52.1% | viability, T/C [29]: 47.6% | viability, T/C [30]: 44.7% | viability, T/C [31]: 90.8% | viability, T/C [32]: 80.6% | viability, T/C [33]: 65.9% | viability, T/C [34]: 47.5% | viability, T/C [35]: 51% | viability, T/C [36]: 46.2%

COc1ccc([C@@H](O)c2cc(-c3ncnc4cc(N5CCOCC5)ccc34)c(F)cc2Cl)nn1 + COC1C(OC(N)=O)C(O)C(Oc2ccc3c(O)c(NC(=O)c4ccc(O)c(CC=C(C)C)c4)c(=O)oc3c2C)OC1(C)C
IC50 (second compound 0.0316 µM): > 10 µM | IC50 (second compound 0.1 µM): > 10 µM | IC50 (second compound 0.316 µM): > 10 µM | IC50 (second compound 1 µM): > 10 µM | IC50 (second compound 3.16 µM): > 10 µM | IC50 (second compound 10 µM): > 10 µM | viability, T/C [1]: 104% | viability, T/C [2]: 99.5% | viability, T/C [3]: 105% | viability, T/C [4]: 92.9% | viability, T/C [5]: 75.5% | viability, T/C [6]: 56% | viability, T/C [7]: 114% | viability, T/C [8]: 104% | viability, T/C [9]: 104% | viability, T/C [10]: 94.2% | viability, T/C [11]: 76.7% | viability, T/C [12]: 57.9% | viability, T/C [13]: 127% | viability, T/C [14]: 99.1% | viability, T/C [15]: 99% | viability, T/C [16]: 89.9% | viability, T/C [17]: 76.8% | viability, T/C [18]: 51.5% | viability, T/C [19]: 94.9% | viability, T/C [20]: 92.3% | viability, T/C [21]: 98.3% | viability, T/C [22]: 91.5% | viability, T/C [23]: 82% | viability, T/C [24]: 54.5% | viability, T/C [25]: 105% | viability, T/C [26]: 101% | viability, T/C [27]: 97% | viability, T/C [28]: 98.4% | viability, T/C [29]: 83.5% | viability, T/C [30]: 57.6% | viability, T/C [31]: 101% | viability, T/C [32]: 89.6% | viability, T/C [33]: 94.4% | viability, T/C [34]: 101% | viability, T/C [35]: 76.8% | viability, T/C [36]: 51.7%

Source: PubChem BioAssay AID1963840 (Molecular Pharmacology Branch, DTP, NCI, 2024)
